# Like-named read-outs stand apart in the source and are kept apart here.
# Assays:
# Caenorhabditis elegans = format: in vivo
# Description: In the second type of experiment, an animal model system was used to study changes in the gut microbiome behavior. Caenorhabditis elegans (C. elegans), a nematode commonly used as an organism model, was used in the present study. Reduction of oxidative stress was determined in the C. elegans model. Butyrate has previously been shown in rodent and porcine studies to ameliorate oxidative stress in the intestine generated via hydrogen peroxide or Diquat dibromide exposure. Thus, an oxidative stress assay is a rapid indirect method of determining whether the tributyrin doses proposed in this study can produce beneficial butyrate in vivo.
# Previous studies have shown that this concentration of Paraquat will kill adult C. elegans in liquid culture within 24 hours of exposure via the generation of superoxide anions that lead to oxidative damage of vital cellular components. The standard methods of growing the animals, treating with Paraquat, washing out the Paraquat, and observing survival at 12 hours post Paraquat treatment have been previously described. One group received only Paraquat as a positive control, while a second group received nothing as a negative control, and all others received the therapeutic treatments. […]
# In the C. elegans series of studies, the human equivalent dose (HED) of tributyrin was determined in the following manner. A typical human stomach size of 250 ml was used as a baseline. […] Tributyrin is soluble in DMSO up to a maximum concentration of 100 mg/ml, which is equivalent to 330.73 mM. C. elegans can be exposed to a 1% solution of DMSO in aqueous standard nematode growth media without compromising its viability. […]
# [1] = cited from earlier work
# [2] = solubility of tributyrin in DMSO; format: physicochemical; details: organic solvent or mixture, equivalent of 100 mg/ml, read-out: maximum concentration soluble in DMSO
# Description: In the C. elegans series of studies, the human equivalent dose (HED) of tributyrin was determined in the following manner. A typical human stomach size of 250 ml was used as a baseline. 100 mg per serving per day of tributyrin for a 60 Kg adult is equivalent to 400 μg/ml (˜1.32 mM). Tributyrin is soluble in DMSO up to a maximum concentration of 100 mg/ml, which is equivalent to 330.73 mM. C. elegans can be exposed to a 1% solution of DMSO in aqueous standard nematode growth media without compromising its viability. Doses between 10 mg HED [40 μg/ml (˜0.13 mM)], and 100 mg HED [400 μg/ml (˜1.32 mM)] were used.
# [3] = system: gut microbiota starter cultures (human feces from 6 volunteers); experiment: ex vivo simulation of colon fermentation with human fecal starter cultures; butyrate generation by chromatography; format: cell-based; details: for Butyrate Generation: after 48 hours of fermentation
# Description: In the first type of experiment, an ex-vivo model system is used. In this model system, an ex vivo simulation of the fermentation that occurs in the colon was used. Human feces from 6 volunteers were used as a gut microbiota starter cultures. The test materials were added to this system and butyrate generation was determined after 48 hours of fermentation, compared to controls for each set. Butyrate generation was measured using chromatography.
# In this series of experiments the human equivalent dose (HED) was determined to be 1 gram/day of ingested prebiotic in-vivo corresponds to approximately 1 g/L in-vitro dose. Therefore a 10 mg/ml in-vitro dose is equivalent to 10 mg/day HED.
# [4] = system: mucosal damage in experimental colitis; details: DSS colitis, 5 g/kg diet, cited from earlier work
# [5] = system: intestinal barrier and liver; details: ethanol-exposed mice, diet supplemented 5 mM, 10 days; cited from earlier work
# [6] = after ingestion, cited from earlier work
# [7] = Example 4, probiotic alone, test dose 5*10^7 CFU/mL, blank 2.78
molecule,measurement,setting,value
"C[n+]1ccc(-c2cc[n+](C)cc2)cc1 [Paraquat, reference compound]",% Survival of Worms at 12 hours,"Caenorhabditis elegans; Paraquat 250 nM alone (positive control), negative control 98.69",67.63%
"CCCC(=O)OCC(COC(=O)CCC)OC(=O)CCC [Tributyrin, propane-1,2,3-triyl tributyrate]",maximum concentration soluble in DMSO,[1],≤ 100 mg/mL
same,solubility,[2],331 mM
same,Butyrate Generation,"[3]; Example 1, test dose 50 mg/L (HED 50 mg per day), blank 2.86",3.22 mM
same,Butyrate Generation,"[3]; Example 1, test dose 100 mg/L (HED 100 mg per day), blank 2.86",3.73 mM
same,butyrate generation compared with inulin at HED 4 g/day,"[3]; Example 1, tributyrin HED 50 to 100 mg/day, in words",about the same amount of butyrate
same,butyrate generation compared with XOS at HED 1 g/day,"[3]; Example 2, tributyrin 100 mg/day HED, in words",equivalent butyrate generation
same,Butyrate Generation,"[3]; Examples 2 and 4, test dose 100 mg/L (HED 100 mg per day), blank 2.78",3.51 mM
same,mucosal architecture,[4]; versus non-supplemented mice,improved mucosal architecture
same,intestinal permeability,[4],reduced intestinal permeability
same,oxidative stress (hydroperoxide),[4],lower level of hydroperoxide
same,liver injury,[5],mitigated liver injury
same,tight-junction (TJ) protein staining in proximal colon and ileum,[5],maintained immunoreactive staining intensity of TJ proteins
same,peak time of butyrate in plasma,[6]; in words,on the order of hours
same,oxidative stress,"Caenorhabditis elegans; Example 3, tributyrin HED 10 and 100 mg/day, in words",significant reduction in oxidative stress
same,% Survival of Worms at 12 hours,"Caenorhabditis elegans; test dose 40 ug/mL (HED 10 mg per day), no Paraquat",97.24%
same,% Survival of Worms at 12 hours,"Caenorhabditis elegans; test dose 40 ug/mL + Paraquat 250 nM (HED 10 mg per day), Paraquat alone 67.63",68.86%
same,% Survival of Worms at 12 hours,"Caenorhabditis elegans; test dose 400 ug/mL (HED 100 mg per day), no Paraquat",99.23%
same,% Survival of Worms at 12 hours,"Caenorhabditis elegans; test dose 400 ug/mL + Paraquat 250 nM (HED 100 mg per day), Paraquat alone 67.63",73.63%
"CCCC(=O)[O-].[Na+] [sodium butyrate, Sodium butyrate, reference compound]",peak time of butyrate in plasma,[6],15 to 45 min
Inulin [reference compound],Butyrate Generation,"[3]; Example 1, test dose 4 g/L (HED 4 g per day), blank 2.86",3.62 mM
Lacticaseibacillus rhamnosus GG [LGG],Butyrate Generation,[3]; [7],3.15 mM
Limosilactobacillus reuteri,Butyrate Generation,[3]; [7],2.72 mM
"partially hydrolyzed guar gum [PHGG, reference compound]",% Survival of Worms at 12 hours,"Caenorhabditis elegans; test dose 20 mg/mL (HED 5 g per day), no Paraquat",96.24%
same,% Survival of Worms at 12 hours,"Caenorhabditis elegans; test dose 20 mg/mL + Paraquat 250 nM (HED 5 g per day), Paraquat alone 67.63",49.39%
same,% Survival of Worms at 12 hours,"Caenorhabditis elegans; test dose 40 mg/mL (HED 10 g per day), no Paraquat",96.27%
same,% Survival of Worms at 12 hours,"Caenorhabditis elegans; test dose 40 mg/mL + Paraquat 250 nM (HED 10 g per day), Paraquat alone 67.63",62.99%
"xylooligosaccharide [XOS, reference compound]",Butyrate Generation,"[3]; Examples 2 and 4, test dose 1 g/L (HED 1 g per day), blank 2.78",3.30 mM
